Structures are written as SMILES.

The text below walks through data of article PMC9356065, “Novel psoralen derivatives as anti-breast cancer agents and their light-activated cytotoxicity against HER2 positive breast cancer cells” (Scientific Reports, 2022).

System in one series: not given
Assay: not given
Conditions: not given
In the case of `CCCCCC(=O)N(C(=O)CCCCC)c1c2ccoc2c(OC)c2oc(=O)ccc12` [3m, N-Hexanoyl-N-(9-methoxy-7-oxo-7H-furo[3,2-g]chromen-4-yl)hexanamide], the melting point fell in the range of 170 to 171 °C.

For `COc1c2occc2c(NC(=O)c2ccco2)c2ccc(=O)oc12` [3g, N-(9-Methoxy-7-oxo-7H-furo[3,2-g]chromen-4-yl)furan-2-carboxamide], the melting point was in the range of 227 to 228 °C.

Another series deals with T47-D. Description: MTT cytotoxicity, 48 h, without UVA. In kind it is cell-based, human. Conditions: Homo sapiens, T47D, light or radiation study; 48 h; without UVA; I = %inhibition lower than 50%; read-out: Cytotoxic activity T47-D %Inhibition. As for the experimental part:
Additionally, the cytotoxicity towards normal cells, human embryonal lung fibroblast cell MRC-5 was also assessed.
(§1) MDA-MB-231 (triple-negative breast cancer) was obtained from M.D. Anderson Cancer Center, Houston, TX, USA). T47-D (hormone-dependent breast carcinoma), SK-BR-3 (human HER2+ breast cancer), and MRC-5 (normal embryonic lung fibroblast) were obtained from the American Type Culture Collection (ATCC, Manassas, VA, USA).
(§2) The cytotoxic effect of tested compounds was evaluated in two breast cancer cell lines, MDA-MB-231 and T47-D. Number of survival cells after exposure to tested compounds for 48 h was determined by MTT assay, as previously described.
`CCCCCC(=O)N(C(=O)CCCCC)c1c2ccoc2c(OC)c2oc(=O)ccc12` [3m, N-Hexanoyl-N-(9-methoxy-7-oxo-7H-furo[3,2-g]chromen-4-yl)hexanamide]: the inhibition at 50 µg/mL amounted to 15%.

`COc1c2occc2c(NC(=O)c2ccco2)c2ccc(=O)oc12` [3g, N-(9-Methoxy-7-oxo-7H-furo[3,2-g]chromen-4-yl)furan-2-carboxamide]: the inhibition at 50 µg/mL stood at 24%.

For the next series, the system named is differentiated HL-60 cells. Description: Inhibition of TPA-induced superoxide anion radical generation (HL-60 Antioxidant). In kind it is cell-based, human. The settings on record: Homo sapiens, HL-60; screening concentration 100 µM; read-out: HL-60 Antiox. %Inh. The source says: Inhibition of 12-O-tetradecanoylphorbol-13-acetate (TPA)-induced superoxide anion radical generation in differentiated HL-60 cells (HL-60 Antioxidant) TPA-induced superoxide anion radical formation was detected in differentiated HL-60 cells by photometric determination of cytochrome c reduction as previously described by Gerhäuser et al., 2003.ii Superoxide dismutase (SOD;15U) was a positive control. […]
Turning to `CCCCCC(=O)N(C(=O)CCCCC)c1c2ccoc2c(OC)c2oc(=O)ccc12` [3m, N-Hexanoyl-N-(9-methoxy-7-oxo-7H-furo[3,2-g]chromen-4-yl)hexanamide], the inhibition at 100 µM stood at 0%.

In the case of `COc1c2occc2c(NC(=O)c2ccco2)c2ccc(=O)oc12` [3g, N-(9-Methoxy-7-oxo-7H-furo[3,2-g]chromen-4-yl)furan-2-carboxamide], the inhibition at 100 µM was 17%.

The test system of a further series is SK-BR-3. Description: Dark and light-activated (UVA) cytotoxicity, MTT. In kind it is cell-based. Conditions: Homo sapiens, dark, HER2+ breast cancer.
The compound `CCCCCC(=O)N(C(=O)CCCCC)c1c2ccoc2c(OC)c2oc(=O)ccc12` [3m, N-Hexanoyl-N-(9-methoxy-7-oxo-7H-furo[3,2-g]chromen-4-yl)hexanamide] gave an IC50 of more than 100 µM.

Regarding `COc1c2occc2c(NC(=O)c2ccco2)c2ccc(=O)oc12` [3g, N-(9-Methoxy-7-oxo-7H-furo[3,2-g]chromen-4-yl)furan-2-carboxamide], the IC50 was more than 100 µM.

The next series has as its system SK-BR-3 cells. Description: Cell morphology by light microscope. In kind it is cell-based, human. Conditions: 48 h; UVA 2.0 J cm^−2. As for the experimental part:
SK-BR-3 and MDA-MB-231 cells were seeded into 96-well cell culture plates at 5 × 10^3 cells/well and incubated for 24 h at 37 °C under 5% CO2. After that, the cells were treated with 50 μM of psoralen derivatives in DMEM with 10% FBS and the cells were continued incubation for another 4 h. […] After incubation, the cell was treated with methylthiazolyldiphenyl-tetrazolium bromide (MTT reagent 200 μL, 0.5 mg mL^−1, Sigma-Aldrich) for 2 h. After reagent removal, DMSO was added to dissolve the formazan product and the cell viabilities were determined through UV–Vis absorption of the resulting formazan at wavelength 560 nm using a microplate reader (BMG Labtech/SPECTROstar Nano). The cell morphology images were captured by using a light microscope (Microscope Nikon, inverted digital) at 20X magnification prior to treating with MTT reagent.
For the compound `COc1c2occc2c(NC(=O)c2ccco2)c2ccc(=O)oc12` [3g, N-(9-Methoxy-7-oxo-7H-furo[3,2-g]chromen-4-yl)furan-2-carboxamide], the “morphology of SK-BR-3 cells under light activation” value is “significantly changed”.

Still in this series, the particulars now being: 48 h; dark.
For `COc1c2occc2c(NC(=O)c2ccco2)c2ccc(=O)oc12` [3g, N-(9-Methoxy-7-oxo-7H-furo[3,2-g]chromen-4-yl)furan-2-carboxamide], the “morphology of SK-BR-3 cells under dark condition” value is recorded as “maintained morphology of intact cells”.

For another series, the system named is ERα activity in MCF-7 cells.
Assay: not given
More on the design: method as in PMID 31673107. The settings on record: read-out: IC50 antagonism of ERα activity in MCF-7 cells; cited from earlier work.
As to `O=c1ccc2cc3ccoc3c(O)c2o1` [xanthotoxol], the IC50 is 0.7 µM.

The next series concerns the target T1, aromatase (CYP19) (Homo sapiens, UniProt P11511).
T1 sequence (P11511 1-503): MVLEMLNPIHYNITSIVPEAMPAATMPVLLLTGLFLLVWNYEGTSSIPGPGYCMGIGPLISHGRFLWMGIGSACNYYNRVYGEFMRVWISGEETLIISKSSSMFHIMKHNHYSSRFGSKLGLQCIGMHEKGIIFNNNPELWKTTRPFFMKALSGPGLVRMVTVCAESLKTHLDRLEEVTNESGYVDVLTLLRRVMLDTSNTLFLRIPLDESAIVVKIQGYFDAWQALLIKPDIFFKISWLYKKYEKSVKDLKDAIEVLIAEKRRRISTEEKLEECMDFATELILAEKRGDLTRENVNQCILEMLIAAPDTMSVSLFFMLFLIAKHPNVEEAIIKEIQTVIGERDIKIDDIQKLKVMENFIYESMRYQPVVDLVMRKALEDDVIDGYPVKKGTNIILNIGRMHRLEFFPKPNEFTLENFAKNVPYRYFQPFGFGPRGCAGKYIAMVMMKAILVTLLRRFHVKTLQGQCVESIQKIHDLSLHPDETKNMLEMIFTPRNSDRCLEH
Description: Inhibition of aromatase (AIA). In kind it is biochemical. The settings on record: at 12.5 µM; I = %inhibition lower than 50%; read-out: Aromatase inhibitory activity %Inhibition. The procedure:
Estrogens are the critical risk factor for breast cancer initiation and progression and the aromatase enzyme involves in the final step conversion of androgens to estrogens[21],[22]. […] In this study, the synthesized psoralen derivatives were also tested for aromatase inhibitory activity (AIA) which is considered to be one of chemopreventive mechanisms for hormone dependent breast cancer.
Inhibition of the aromatase was performed using the method designed by Stresser et al.[39].
Take `COc1c2occc2c(NC(=O)c2ccco2)c2ccc(=O)oc12` [3g, N-(9-Methoxy-7-oxo-7H-furo[3,2-g]chromen-4-yl)furan-2-carboxamide]: the inhibition at 12.5 µM worked out at 16%.

The same series, now with this note: read-out: Aromatase inhibitory activity IC50.
Take `CCCCCC(=O)N(C(=O)CCCCC)c1c2ccoc2c(OC)c2oc(=O)ccc12` [3m, N-Hexanoyl-N-(9-methoxy-7-oxo-7H-furo[3,2-g]chromen-4-yl)hexanamide]: the IC50 came to 9.4 ± 0.4 µM.

For the next series, the system named is MDA-MB-231. Description: Dark and light-activated (UVA) cytotoxicity, MTT. Conditions: Homo sapiens, MDA-MB-231, light or radiation study; irradiation with UVA (2.0 J cm^−2); HER2− breast cancer. In kind it is cell-based. The procedure: (§3) The selected compounds were screened for their IC50 values against both HER2+ breast cancer (SK-BR-3), and HER2− breast cancer (MDA-MB-231) in both dark and light-activated conditions (Table 2). Additionally, a negative control study was also performed with SK-BR-3 and MDA-MB-231 cells in the absence of tested compound under UVA irradiation (See Fig S7., Supporting Information).
(§4) SK-BR-3 and MDA-MB-231 cells were seeded into 96-well cell culture plates at 5 × 10^3 cells/well and incubated for 24 h at 37 °C under 5% CO2. After that, the cells were treated with 50 μM of psoralen derivatives in DMEM with 10% FBS and the cells were continued incubation for another 4 h. After incubation, the cells were washed with PBS (3 times) and then irradiated by a 365 nm lamp with the light intensity of 2.0 J cm^−2 for 12.5 min before re-incubation for another 72 h. After incubation, the cell was treated with methylthiazolyldiphenyl-tetrazolium bromide (MTT reagent 200 μL, 0.5 mg mL^−1, Sigma-Aldrich) for 2 h. After reagent removal, DMSO was added to dissolve the formazan product and the cell viabilities were determined through UV–Vis absorption of the resulting formazan at wavelength 560 nm using a microplate reader (BMG Labtech/SPECTROstar Nano). The cell morphology images were captured by using a light microscope (Microscope Nikon, inverted digital) at 20X magnification prior to treating with MTT reagent.
Consider `CCCCCC(=O)N(C(=O)CCCCC)c1c2ccoc2c(OC)c2oc(=O)ccc12` [3m, N-Hexanoyl-N-(9-methoxy-7-oxo-7H-furo[3,2-g]chromen-4-yl)hexanamide], for which the IC50 was more than 100 µM.

As to `COc1c2occc2c(NC(=O)c2ccco2)c2ccc(=O)oc12` [3g, N-(9-Methoxy-7-oxo-7H-furo[3,2-g]chromen-4-yl)furan-2-carboxamide], the IC50 was more than 100 µM.

System in a further series: not listed separately
Description: Scavenging of diphenyl-picryl-hydrazyl radicals (DPPH). Conditions: screening concentration 250 µM. The source says:
1. Chemoprevention activity
Background: DPPH is a stable violet radical that fades when it is reduced.
For `CCCCCC(=O)N(C(=O)CCCCC)c1c2ccoc2c(OC)c2oc(=O)ccc12` [3m, N-Hexanoyl-N-(9-methoxy-7-oxo-7H-furo[3,2-g]chromen-4-yl)hexanamide], the “DPPH %Inh” value came to 1%.

As to `COc1c2occc2c(NC(=O)c2ccco2)c2ccc(=O)oc12` [3g, N-(9-Methoxy-7-oxo-7H-furo[3,2-g]chromen-4-yl)furan-2-carboxamide], the “DPPH %Inh” value is 3%.

For a further series, the system named is SK-BR-3. Description: Dark and light-activated (UVA) cytotoxicity, MTT. In kind it is cell-based, human. Conditions: Homo sapiens, SK-BR-3, light or radiation study; irradiation with UVA (2.0 J cm^−2); HER2+ breast cancer. The procedure:
as §3, §4
As for `CCCCCC(=O)N(C(=O)CCCCC)c1c2ccoc2c(OC)c2oc(=O)ccc12` [3m, N-Hexanoyl-N-(9-methoxy-7-oxo-7H-furo[3,2-g]chromen-4-yl)hexanamide], inhibition was half-maximal at 27.1 ± 1.2 µM (IC50).

In the case of `COc1c2occc2c(NC(=O)c2ccco2)c2ccc(=O)oc12` [3g, N-(9-Methoxy-7-oxo-7H-furo[3,2-g]chromen-4-yl)furan-2-carboxamide], the midpoint of inhibition, the IC50, lay at 2.71 ± 0.84 µM.

The next series has as its system MDA-MB-231. Description: Dark and light-activated (UVA) cytotoxicity, MTT. The series is classed as cell-based. The settings on record: Homo sapiens, dark, HER2− breast cancer.
Consider `CCCCCC(=O)N(C(=O)CCCCC)c1c2ccoc2c(OC)c2oc(=O)ccc12` [3m, N-Hexanoyl-N-(9-methoxy-7-oxo-7H-furo[3,2-g]chromen-4-yl)hexanamide], for which the IC50 was more than 100 µM.

`COc1c2occc2c(NC(=O)c2ccco2)c2ccc(=O)oc12` [3g, N-(9-Methoxy-7-oxo-7H-furo[3,2-g]chromen-4-yl)furan-2-carboxamide] gave an IC50 of more than 100 µM.

Another series deals with MDA-MB-231. Description: MTT cytotoxicity, 48 h, without UVA. The settings on record: Homo sapiens, MDA-MB-231, light or radiation study, I = %inhibition lower than 50%, read-out: Cytotoxic activity MDA-MB-231 %Inhibition. The series is classed as cell-based. The procedure:
as §1, §2
With `CCCCCC(=O)N(C(=O)CCCCC)c1c2ccoc2c(OC)c2oc(=O)ccc12` [3m, N-Hexanoyl-N-(9-methoxy-7-oxo-7H-furo[3,2-g]chromen-4-yl)hexanamide], the inhibition at 50 µg/mL was 5%.

Consider `COc1c2occc2c(NC(=O)c2ccco2)c2ccc(=O)oc12` [3g, N-(9-Methoxy-7-oxo-7H-furo[3,2-g]chromen-4-yl)furan-2-carboxamide], for which the inhibition at 50 µg/mL worked out at 0.5%.

System in another series: not listed separately
Description: Inhibition of superoxide radical formation by xanthine/xanthine oxidase (XXO). The series is classed as biochemical. Conditions: screening concentration 500 µM.
Source text: 1. […]
As to `CCCCCC(=O)N(C(=O)CCCCC)c1c2ccoc2c(OC)c2oc(=O)ccc12` [3m, N-Hexanoyl-N-(9-methoxy-7-oxo-7H-furo[3,2-g]chromen-4-yl)hexanamide], the “XXO %Inh” value amounted to 2%.

For orientation: melting point means the temperature, or range, at which the solid turns liquid. Broadly, the IC50 is the midpoint of a concentration-inhibition curve.
